Measurements published in patent US11479555B2, “Substituted 1,2-dihydro-3H-pyrazolo[3,4-D]pyrimidin-3-ones as inhibitors of WEE-1 kinase” (Newave Pharmaceutical Inc., priority 2018, dated 2022).

Experiments:
[1] = system: SK-MES-1; assay: In vitro cellular anti-proliferation assay (ATPlite), SK-MES-1; format: cell-based; settings: Homo sapiens, about 72 hours, 5% FBS
Procedure: (§1) Cell antiproliferation was assayed by PerkinElmer ATPlite™ Luminescence Assay System. Briefly, the various test cancer cell lines were plated at a density of about 1×10^4 cells per well in Costar 96-well plates, and were incubated with different concentrations of compounds for about 72 hours in medium supplemented with 5% FBS. One lyophilized substrate solution vial was then reconstituted by adding 5 mL of substrate buffer solution, and was agitated gently until the solution was homogeneous. About 50 μL of mammalian cell lysis solution was added to 100 μL of cell suspension per well of a microplate, and the plate was shaken for about five minutes in an orbital shaker at ˜700 rpm. This procedure was used to lyse the cells and to stabilize the ATP. Next, 50 μL substrate solution was added to the wells and microplate was shaken for five minutes in an orbital shaker at ˜700 rpm. Finally, the luminescence was measured by a PerkinElmer TopCount® Microplate Scintillation Counter. Such assays, carried out with a range of doses of test compounds, allowed the determination of the cellular anti-antiproliferative IC50 of the compounds of the present invention.
(§2) The following table lists the LoVo IC50 values of another study for certain compounds of the invention.

[2] = system: A498; assay: In vitro cellular anti-proliferation assay (ATPlite), A498; format: cell-based; settings: Homo sapiens, about 72 hours, 5% FBS
Procedure: as §1, §2

[3] = target: Wee1 kinase (Homo sapiens (Human), UniProt P30291); assay: Wee-1 biochemical assay; settings: another study
Sequence of Wee1 kinase (P30291 whole entry): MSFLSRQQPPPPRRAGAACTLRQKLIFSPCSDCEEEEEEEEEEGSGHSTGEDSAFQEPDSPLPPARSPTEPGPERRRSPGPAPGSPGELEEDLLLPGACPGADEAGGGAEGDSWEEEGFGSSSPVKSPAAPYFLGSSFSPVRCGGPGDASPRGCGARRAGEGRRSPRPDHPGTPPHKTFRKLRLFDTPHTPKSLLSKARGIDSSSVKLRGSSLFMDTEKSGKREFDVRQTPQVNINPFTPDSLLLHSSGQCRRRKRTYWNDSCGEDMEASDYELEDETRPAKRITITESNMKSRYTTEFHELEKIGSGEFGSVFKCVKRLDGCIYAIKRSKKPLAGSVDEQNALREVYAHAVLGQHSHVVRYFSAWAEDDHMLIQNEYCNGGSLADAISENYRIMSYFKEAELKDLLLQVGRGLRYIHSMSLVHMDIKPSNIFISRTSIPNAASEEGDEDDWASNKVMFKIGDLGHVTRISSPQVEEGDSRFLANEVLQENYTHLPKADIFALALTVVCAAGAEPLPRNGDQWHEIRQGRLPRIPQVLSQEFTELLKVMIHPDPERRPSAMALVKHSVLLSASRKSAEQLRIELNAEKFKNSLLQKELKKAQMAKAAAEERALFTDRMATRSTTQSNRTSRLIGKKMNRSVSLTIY
Procedure: In determination of the Weel kinase activity, a synthetic peptide, Poly(Lys,Tyr) Hydrobromide (Lys:Tyr (4:1)) bought from Sigma was used as the substrate. The amount of the reaction mixture was 21.1 μL; and the composition of the reaction buffer was 50 mM Tris-HCl buffer (pH 7.4)/10 mM magnesium chloride/1 mM dithiothreitol. The purified Weel kinase, 2.5 μg of the substrate peptide, 10 μM of non-labeled adenosine triphosphate (ATP) and 1 μCi of [γ-^33P]-labeled ATP (2500 Ci/mmol or more) were added to it, and incubated at 30° C. for 30 minutes. Next, 10 μL of 350 mM phosphate buffer was added to the reaction mixture to stop the reaction. The substrate peptide was adsorbed by a P81 paper filter 96-well plate, then washed a few times with 130 mM phosphate buffer, and its radioactivity was counted with a liquid scintillation counter. The [γ-^33P]-labeled ATP was bought from Amersham Bioscience. To add the test compound to the reaction system, the compound was diluted with dimethylsulfoxide (DMSO) to prepare a series of dilutions. 1.1 μL of each dilution was added to the reaction system. As a control, 1.1 μL of DMSO was added to the reaction system. Such assays, carried out with a range of doses of test compounds, allow the determination of the Wee1 IC50 of the compounds of the present invention

[4] = Mice CNS PK study; format: in vivo; settings: CD-1 mouse; for AUC(0-t): plasma, read-out: Plasma AUClast; for Kp: brain/plasma (printed as Brain/Blood), read-out: Brain/Blood Ratio
Procedure: The pharmacokinetics of compounds were evaluated in CD-1 mouse via Intravenous and Oral Administration. The iv dose was administered as a slow bolus in the Jugular vein, and oral doses were administered by gavage. The formulation for IV dosing is 5% DMSO in “20% HPBCD in water, and the PO formulation is 2.5% DMSO, 10% EtOH, 20% Cremphor EL, 67.5% D5W. The PK time point for the IV arm is 5, 15, 30 min, 1, 2, 4, 6, 8, 12, 24 hours post dose, and for PO arm is 15, 30 min, 1, 2, 4, 6, 8, 12, 24 hours post dose.
Plasma Samples Processing and Storage: Approximately 0.2 mL blood will be collected at each time point. Keep blood at room temperature and collect plasma within 15 min by centrifugation at 4000 g for 5 minutes in a 4° C. centrifuge. Plasma samples will be stored in polypropylene tubes. The plasma samples will be stored in a freezer at −75±15° C. prior to analysis.
Brain Samples Processing and Storage: The mice will be fully exsanguinated prior to tissue collection. Procedure: open chest cavity, cut ventricle and perform a gentle iv saline flush (saline flush volume ˜10 ml) with the animal placed head down at a 45 degree angle to facilitate blood removal. Tissue samples will be collected at adopted time point, quick frozen in ice box and kept at −75±15° C. All tissue samples will be weighted and homogenized with water by tissue weight (g) to water volume (mL) at ratio 1:3 before analysis. The actual concentration is the detected value multiplied by the dilution factor.
Concentrations of compounds in the plasma samples will be analyzed using a LC-MS/MS method. WinNonlin (Phoenix™, version 6.1) or other similar software will be used for pharmacokinetic calculations. The following pharmacokinetic parameters will be calculated, whenever possible from the plasma concentration versus time data: IV administration: C0, CL, Vd, T1/2, AUCinf, AUClast, MRT, Number of Points for Regression; PO administration: Cmax, Tmax, T1/2, AUCinf, AUClast, F %, Number of Points for Regression. The pharmacokinetic data will be described using descriptive statistics such as mean, standard deviation. Additional pharmacokinetic or statistical analysis may be performed at the discretion of the contributing scientist, and will be documented in the data summary.

[5] = system: LoVo; assay: In vitro cellular anti-proliferation assay (ATPlite), LoVo; format: cell-based; settings: Homo sapiens, about 72 hours, 5% FBS
Procedure: as §1, §2

[6] = system: tumor; assay: In vivo xenograft study; set-up: species or system CB.17 SCID mice; settings: 7 dose at 100 mg/kg, day 18
Source text: The CB.17 SCID mice are obtained at age 6-8 weeks from vendors and acclimated for a minimum 7-day period. The cancer cells are then implanted into the […] mice. Depending on the specific tumor type, tumors are typically detectable about two weeks following implantation. When tumor sizes reach ˜100-200 mm^3, the animals with appreciable tumor size and shape are randomly assigned into groups of 8 mice each, including one vehicle control group and treatment groups. Dosing varies depending on the purpose and length of each study, which typically proceeds for about 3-4 weeks. Tumor sizes and body weight are typically measured three times per week. In addition to the determination of tumor size changes, the last tumor measurement is used to generate the tumor size change ratio (T/C value), a standard metric developed by the National Cancer Institute for xenograft tumor evaluation. […] When tumor regression occurred (ΔT<0), however, the following formula is used: % T/T0=100×ΔT/T0.

[7] = system: WEE1; settings: inhibits WEE1 activity, induces DNA damage and G2 checkpoint escape; read-out: EC50 in cell based assays; cited from earlier work

Row | SMILES | IC50 [1] [nM] | IC50 [2] [nM] | IC50 [3] [nM] | Brain AUClast [4] | AUC(0-t) [4] [ng·h/mL] | Kp [4] | IC50 [5] [nM] | tumor regression [6] | EC50 [7] [nM]
1 | CC(C)n1c(=O)c2cnc(Nc3ccc(N4CCN(C)CC4)cc3)nc2n1-c1cccc(C(C)(C)F)n1 [Example 13, 1-(6-(2-fluoropropan-2-yl)pyridin-2-yl)-2-isopropyl-6-((4-(4-methylpiperazin-1-yl)phenyl)amino)-1,2-dihydro-3H-pyrazolo[3,4-d]pyrimidin-3-one] | < 250 | < 500 | < 1.5 | 11,907 h*ng/mL | 8660 | 1.38 | < 300 | – | –
2 | CC(C)n1c(=O)c2cnc(Nc3ccc(N4CCN(C)CC4)cc3)nc2n1-c1cccc(C2CC2)n1 [Example 15, 1-(6-cyclopropylpyridin-2-yl)-2-isopropyl-6-((4-(4-methylpiperazin-1-yl)phenyl)amino)-1,2-dihydro-3H-pyrazolo[3,4-d]pyrimidin-3-one] | < 250 | < 500 | < 1.5 | 4,910 h*ng/mL | 4710 | 1 | < 300 | – | –
3 | C=CCn1c(=O)c2cnc(Nc3cnn(C4CCN(C5CCC(F)(F)CC5)CC4)c3)nc2n1-c1cccc(C(C)(C)O)n1.Cl [Example 3, 6-([1-[1-(4,4-difluorocyclohexyl)piperidin-4-yl]-1H-pyrazol-4-yl]amino)-1-[6-(2-hydroxypropan-2-yl)pyridin-2-yl]-2-(prop-2-en-1-yl)-1H,2H,3H-pyrazolo[3,4-d]pyrimidin-3-one Hydrochloride] | – | – | – | – | – | – | – | complete regression of the tumor | –
4 | CC(C)n1c(=O)c2cnc(Nc3ccc(N4CCN(C)CC4)cc3)nc2n1-c1cccc(C(C)(C)C(F)(F)F)n1 [Example 11, 2-isopropyl-6-((4-(4-methylpiperazin-1-yl)phenyl)amino)-1-(6-(1,1,1-trifluoro-2-methylpropan-2-yl)pyridin-2-yl)-1,2-dihydro-3H-pyrazolo[3,4-d]pyrimidin-3-one] | < 250 | < 500 | < 1.5 | 12,002 h*ng/mL | 7510 | 1.6 | < 300 | – | –
5 | C=CCn1c(=O)c2cnc(Nc3ccc(N4CCN(C)CC4)cc3)nc2n1-c1cccc(C(C)(C)O)n1 [AZD1775, reference compound] | < 250 | < 500 | – | 524 ng·h/mL | 9000 | 0.058 | < 300 | – | […]
